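48-hour exposure; five concentrations; linearly interpolated endpoints. Abbreviation: GI50, concentration required for 50% inhibition of growth. TGI is the concentration that stops growth completely.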 Some results are limits rather than exact numbers.

Test systems include HOP-62 NSCLC; A498 renal; LOX IMVI melanoma; CCRF-CEM leukemia; NCI-H226 lung; SN12C renal; OVCAR-8 ovarian; OVCAR-3 ovarian.
Holding throughout (assay): growth of human tumour cells (NCI), 48 h

For the compound `CCCCCCCCn1ccc2cc(NC(=O)Cn3cc(CN4CCCC4)nn3)ccc21`, the GI50 was 1.75 µM in the assay with HOP-62 NSCLC; 1.7 µM with A498 renal; 1.62 µM in the assay with LOX IMVI melanoma; 2.9 µM with CCRF-CEM leukemia; 1.59 µM in the assay on NCI-H226 lung; 1.74 µM in the assay on SN12C renal. The GI50 in the assay on OVCAR-8 ovarian is 2 µM; with OVCAR-3 ovarian, 2.13 µM. For the same compound, the TGI with HOP-62 NSCLC is 3.49 µM; in the assay with A498 renal, 3.35 µM; in the assay on LOX IMVI melanoma it was 3.01 µM; in the assay on CCRF-CEM leukemia it was greater than 100 µM; in the assay on NCI-H226 lung, 3.16 µM; in the assay on SN12C renal, 3.29 µM. The TGI worked out at 4.09 µM in the assay with OVCAR-8 ovarian and 4.9 µM with OVCAR-3 ovarian.
For `COc1ccc(NC(=O)CC(=O)N/N=C/c2ccc(N(CCC#N)S(C)(=O)=O)cc2)cc1`, the TGI in the assay on HOP-62 NSCLC, in the assay on A498 renal, in the assay on LOX IMVI melanoma, with CCRF-CEM leukemia, in the assay with NCI-H226 lung and with SN12C renal was greater than 100 µM throughout. The TGI in the assay on OVCAR-8 ovarian and in the assay on OVCAR-3 ovarian was greater than 100 µM in each case.
In the case of `NC(=O)NS(=O)(=O)c1ccc(N2N=C(C(F)(F)F)CC2c2cc(C(F)(F)F)cc(C(F)(F)F)c2)cc1` (centres undefined), the GI50 was 6.53 µM with HOP-62 NSCLC; 2.24 µM with A498 renal; 5.76 µM in the assay on LOX IMVI melanoma; 2.94 µM in the assay on CCRF-CEM leukemia; 7.21 µM with NCI-H226 lung; 2.1 µM in the assay on SN12C renal. The results for the GI50 in the assay with OVCAR-8 ovarian and with OVCAR-3 ovarian were 4.78 µM and 1.83 µM, respectively. In addition, the TGI with HOP-62 NSCLC was found to be 22.4 µM; with A498 renal, 8.15 µM; with LOX IMVI melanoma, 19.1 µM; in the assay with CCRF-CEM leukemia, 19.9 µM; in the assay with NCI-H226 lung, 21.8 µM; in the assay on SN12C renal, 4.51 µM. In addition, the results for the TGI with OVCAR-8 ovarian and with OVCAR-3 ovarian were 20 µM and 4.12 µM, respectively.
For the compound `NC1=NC(c2ccccc2)CC(c2cc(Cl)ccc2O)=N1` (centres undefined), the TGI in the assay with HOP-62 NSCLC was 30.2 µM; with A498 renal, 34.5 µM; in the assay with LOX IMVI melanoma, 29.5 µM; in the assay with CCRF-CEM leukemia, 51.8 µM; in the assay on NCI-H226 lung it was 37.8 µM; in the assay with SN12C renal, 26.9 µM. Also, the values for the TGI in the assay on OVCAR-8 ovarian and in the assay with OVCAR-3 ovarian were 29.8 µM and 31.6 µM, respectively.
Turning to `C[N+]1=C(/C=C/c2ccc(O)c3ncccc23)C(C)(C)c2ccccc21`, the GI50 is 3.44 µM in the assay with HOP-62 NSCLC; 1.97 µM in the assay on A498 renal; 2.32 µM with LOX IMVI melanoma; 3.1 µM in the assay on CCRF-CEM leukemia; 3.26 µM in the assay on NCI-H226 lung; 2.82 µM in the assay with SN12C renal. For the same compound, the results for the GI50 in the assay with OVCAR-8 ovarian and in the assay with OVCAR-3 ovarian were 3.55 µM and 2.1 µM, respectively. The TGI is 14.5 µM in the assay on HOP-62 NSCLC; 11 µM in the assay on A498 renal; 5.74 µM with LOX IMVI melanoma; 26 µM with CCRF-CEM leukemia; 12.9 µM with NCI-H226 lung; 10.4 µM in the assay on SN12C renal. Moreover, the TGI with OVCAR-8 ovarian is greater than 100 µM; in the assay with OVCAR-3 ovarian, 5.46 µM.
As to `COc1cc2cc(Oc3ccc(NC(=O)Nc4ccc(Cl)c(C(F)(F)F)c4)cc3)c(C)nc2cc1OCCN1CCOCC1`, the GI50 is 2.05 µM in the assay with HOP-62 NSCLC; 2.45 µM in the assay on A498 renal; 1.39 µM in the assay on LOX IMVI melanoma; 1.45 µM in the assay on CCRF-CEM leukemia; 1.86 µM in the assay with NCI-H226 lung; 2.56 µM in the assay with SN12C renal. Further, the GI50 was 2.67 µM with OVCAR-8 ovarian and 1.52 µM with OVCAR-3 ovarian. In addition, the TGI is 4.55 µM in the assay on HOP-62 NSCLC; 9.62 µM with A498 renal; 2.81 µM with LOX IMVI melanoma; greater than 100 µM with CCRF-CEM leukemia; 5.91 µM in the assay on NCI-H226 lung; 56.2 µM with SN12C renal. The TGI in the assay with OVCAR-8 ovarian is greater than 100 µM; with OVCAR-3 ovarian, 3.47 µM.
Regarding `COC(=O)Nc1nc2ccc(Oc3ccc(NC(=O)Nc4cc(C(F)(F)F)ccc4F)cc3)cc2s1`, the GI50 with HOP-62 NSCLC is 16.7 µM; in the assay on LOX IMVI melanoma, 3.65 µM; in the assay on CCRF-CEM leukemia, greater than 23.7 µM; in the assay with NCI-H226 lung, greater than 25 µM; in the assay with SN12C renal it was greater than 17.3 µM; in the assay with OVCAR-8 ovarian, 8.67 µM. Further, the GI50 in the assay on OVCAR-3 ovarian is greater than 23.9 µM. In addition, the TGI in the assay on HOP-62 NSCLC, in the assay with A498 renal, in the assay on LOX IMVI melanoma, in the assay with CCRF-CEM leukemia, in the assay with NCI-H226 lung and with SN12C renal was greater than 25 µM in each case. Moreover, the TGI with OVCAR-8 ovarian and in the assay on OVCAR-3 ovarian was greater than 25 µM each time.
For the compound `Cc1cc2c(cc1Cl)SC1=NN(C)S(=O)N1S2(=O)=O` (centres undefined), the GI50 in the assay with HOP-62 NSCLC is greater than 100 µM; in the assay with A498 renal, 99.5 µM; in the assay on LOX IMVI melanoma it was greater than 100 µM; in the assay with CCRF-CEM leukemia it was greater than 100 µM; with NCI-H226 lung, greater than 100 µM; in the assay with SN12C renal, greater than 100 µM. Besides, the GI50 with OVCAR-8 ovarian and in the assay with OVCAR-3 ovarian was greater than 100 µM throughout. In addition, the TGI with HOP-62 NSCLC, with A498 renal, in the assay on LOX IMVI melanoma, in the assay on CCRF-CEM leukemia, in the assay on NCI-H226 lung and in the assay on SN12C renal was greater than 100 µM each time. Further, the TGI in the assay on OVCAR-8 ovarian and in the assay with OVCAR-3 ovarian was greater than 100 µM in each case.
As to `O=C(O)c1nn(-c2ccccc2-c2n[nH]c(=O)[nH]c2=O)c(=O)[nH]c1=O`, the TGI in the assay on HOP-62 NSCLC, in the assay with A498 renal, with LOX IMVI melanoma, with CCRF-CEM leukemia, in the assay with NCI-H226 lung and with SN12C renal was greater than 100 µM throughout. In addition, the TGI in the assay on OVCAR-8 ovarian and in the assay on OVCAR-3 ovarian was greater than 100 µM in each case.
